Each structure is given as a SMILES string. Activity calls are given as the source filed them. The calls are words filed in the database; no cut-off is given here.

The target in one data set is Protease (Human immunodeficiency virus 1, UniProt Q9YQ12). The experiment in a line: Inhibition of wild type HIV-1 protease assessed as hydrolysis of fluorogenic substrate Abz-Thr-Ile-Nle-Phe(NO2)-Gln-Arg after 10 mins by fluorescence assay.
Data set [1] is described as follows: Cytotoxicity against human U937 cells after 1 to 4 hrs by MTS assay. The class given is cell-based, U-937.
Data set [2] relates to Human immunodeficiency virus type 1 protease (Human immunodeficiency virus 1), Q72874 [V82A]. The experiment in a line: Inhibition of HIV-1 protease V82A mutant assessed as hydrolysis of fluorogenic substrate Abz-Thr-Ile-Nle-Phe(NO2)-Gln-Arg after 10 mins by fluorescence assay.
Data set [3] deals with Human immunodeficiency virus type 1 protease (Human immunodeficiency virus 1), Q72874 [V32I]. The experiment in a line: Inhibition of HIV-1 protease V32I mutant assessed as hydrolysis of fluorogenic substrate Abz-Thr-Ile-Nle-Phe(NO2)-Gln-Arg after 10 mins by fluorescence assay.

Sequence of Protease (Q9YQ12 whole entry): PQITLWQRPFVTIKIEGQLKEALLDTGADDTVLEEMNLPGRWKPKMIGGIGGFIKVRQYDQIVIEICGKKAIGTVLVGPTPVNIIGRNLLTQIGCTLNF

For `COc1ccc(S(=O)(=O)N(CC(C)C)C[C@@H](O)COc2ccc3c(ccn3C)c2)cc1OC`, the half-inhibitory concentration (IC50) at Protease was more than 1000 µM. The same measure, in the same setting: in the case of `COc1ccc(S(=O)(=O)N(CC(C)C)C[C@@H](O)COc2ccc3[nH]ccc3c2)cc1OC` it was 1 µM. As for `COc1ccc(S(=O)(=O)N(CC(C)C)C[C@@H](O)COc2ccc3sccc3c2)cc1OC`, on Protease, the half-maximal inhibitory concentration (IC50) worked out at 0.06 µM. Also, the CC50 in data set [1] was more than 90 µM. In addition, the inhibition entry in data set [2] and in data set [3] was “inactive” in each case.

For `COc1ccc(S(=O)(=O)N(CC(C)C)C[C@@H](O)COc2ccc3occc3c2)cc1OC`, on Protease, the IC50 stood at 130 µM. The same measure, in the same setting: in the case of `COc1ccc(S(=O)(=O)N(CC(C)C)C[C@@H](O)COc2ccc3c(ccn3Cc3ccccc3)c2)cc1OC` it was more than 1000 µM. On the same count and under the same terms, the figure for `Cc1c(O)cccc1C(=O)N[C@@H](CSc1ccccc1)[C@H](O)CN1C[C@H]2CCCC[C@H]2C[C@H]1C(=O)NC(C)(C)C` [NELFINAVIR] is 0.009 µM.

(Values after ChEMBL document CHEMBL2016437, “Synthesis and biological evaluation of novel small non-peptidic HIV-1 PIs: the benzothiophene ring as an effective moiety” (Bioorg Med Chem Lett, 2012).)
